Results taken from patent US20120214862A1, “MODULATION OF FACTOR 7 EXPRESSION” (ISIS Pharmaceuticals, Inc., priority 2009, published 2012).
In the oligonucleotide strings, read from the 5' end, every base follows the letter of its sugar. An asterisk marks phosphorothioate; unmarked linkages are phosphodiester. Other units and linkages are bracketed, terminal groups are in braces. A string of capitals states the bases alone. e = 2'-O-(2-methoxyethyl) (MOE); [5mC] = 5-methylcytosine; d = 2'-deoxy (DNA)

These substances were tested on human Factor 7 mRNA (assay: Inhibition of human Factor 7 mRNA by 2-10-2 MOE shortmers in HepB3 cells, electroporation, 1,000 nM). Settings: electroporation, 1,000 nM oligonucleotide, approximately 24 hours, relative to untreated control cells.
Type: cell-based
Outline: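 14-mer 2-10-2 2′-MOE gapmers, full phosphorothioate, 5-methylcytidines, electroporated at 1,000 nM into HepB3 cells (20,000/well). After ~24 h, mRNA quantified by real-time RT-PCR, normalized to RIBOGREEN total RNA; percent inhibition relative to untreated cells.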
With “435752 (antisense eT*eG*d[5mC]*dA*dG*d[5mC]*dT*dT*dG*d[5mC]*d[5mC]*dA*eG*eG) [compound 435752]” the “% inhibition of human Factor 7 mRNA” value was 12%. “435753 (antisense eA*eA*dG*dA*dG*dT*dG*d[5mC]*dA*dG*d[5mC]*dT*eT*eG) [compound 435753]” was tested, and the “% inhibition of human Factor 7 mRNA” value was 9%. “435754 (antisense eT*e[5mC]*dA*dG*d[5mC]*dA*dA*dG*dA*dG*dT*dG*e[5mC]*eA) [compound 435754]” was tested, and the “% inhibition of human Factor 7 mRNA” value was 16%. For “435755 (antisense eG*eG*dG*dA*d[5mC]*dT*d[5mC]*dA*dG*d[5mC]*dA*dA*eG*eA) [compound 435755]”, the “% inhibition of human Factor 7 mRNA” value was 0%. For “435756 (antisense eT*eG*d[5mC]*d[5mC]*d[5mC]*dA*dG*dG*dA*d[5mC]*dG*dG*e[5mC]*e[5mC]) [compound 435756]”, the “% inhibition of human Factor 7 mRNA” value was 20%. “435757 (antisense eT*eG*d[5mC]*d[5mC]*dT*dG*dA*dG*dT*dG*d[5mC]*d[5mC]*e[5mC]*e[5mC]) [compound 435757]” was tested, and the “% inhibition of human Factor 7 mRNA” value was 51%. With “435758 (antisense e[5mC]*e[5mC]*d[5mC]*dT*dG*dA*dG*d[5mC]*dT*dG*dG*dG*e[5mC]*eA) [compound 435758]” the “% inhibition of human Factor 7 mRNA” value was 4%. In the case of “435759 (antisense eG*eA*dG*d[5mC]*d[5mC]*dA*d[5mC]*dA*dG*dA*dG*d[5mC]*e[5mC]*eT) [compound 435759]”, the “% inhibition of human Factor 7 mRNA” value is reported as 11%. “435760 (antisense eT*e[5mC]*dT*dT*dG*dG*dG*dT*dG*dT*dG*dG*eA*eT) [compound 435760]” was tested, and the “% inhibition of human Factor 7 mRNA” value was 17%. With “435761 (antisense e[5mC]*eA*dG*dA*dT*dG*dA*dA*dA*dA*d[5mC]*dT*eT*eG) [compound 435761]” the “% inhibition of human Factor 7 mRNA” value was 5%. In the case of “435762 (antisense e[5mC]*eA*dG*dG*dT*dG*dT*dT*dA*dA*dG*dG*eT*eG) [compound 435762]”, the “% inhibition of human Factor 7 mRNA” value is reported as 0%. In the case of “435763 (antisense eA*eG*dG*dA*dG*dA*dA*dA*dG*dG*dT*d[5mC]*eA*eG) [compound 435763]”, the “% inhibition of human Factor 7 mRNA” value is reported as 2%. “435764 (antisense eT*eG*dA*dG*dA*dG*d[5mC]*dT*dG*d[5mC]*dA*d[5mC]*e[5mC]*eT) [compound 435764]” was tested, and the “% inhibition of human Factor 7 mRNA” value was 8%. “435765 (antisense e[5mC]*eA*dA*dA*dG*dT*dT*d[5mC]*dT*d[5mC]*dT*dG*e[5mC]*e[5mC]) [compound 435765]” was tested, and the “% inhibition of human Factor 7 mRNA” value was 1%. With “435766 (antisense eG*e[5mC]*dA*d[5mC]*d[5mC]*dT*dG*d[5mC]*dA*dG*d[5mC]*d[5mC]*eA*eG) [compound 435766]” the “% inhibition of human Factor 7 mRNA” value was 51%. “435767 (antisense e[5mC]*eA*d[5mC]*d[5mC]*dA*dA*dG*dT*dT*dT*dA*dT*eG*eG) [compound 435767]” was tested, and the “% inhibition of human Factor 7 mRNA” value was 0%. For “435768 (antisense eG*e[5mC]*d[5mC]*dT*dG*dG*dA*dT*dG*d[5mC]*dT*dG*eG*eT) [compound 435768]”, the “% inhibition of human Factor 7 mRNA” value was 75%. With “435769 (antisense eT*eT*d[5mC]*dT*dT*dT*dG*dA*dA*dA*dA*dA*eT*eA) [compound 435769]” the “% inhibition of human Factor 7 mRNA” value was 0%. For “435770 (antisense e[5mC]*eT*d[5mC]*dT*dG*dA*dG*dA*dG*dG*d[5mC]*d[5mC]*e[5mC]*e[5mC]) [compound 435770]”, the “% inhibition of human Factor 7 mRNA” value was 81%. In the case of “435771 (antisense eG*eT*d[5mC]*dA*dT*dA*dA*dG*dG*d[5mC]*d[5mC]*dA*eT*eG) [compound 435771]”, the “% inhibition of human Factor 7 mRNA” value is reported as 13%. With “435772 (antisense eG*e[5mC]*dA*dG*dT*d[5mC]*d[5mC]*d[5mC]*dT*dG*d[5mC]*dT*e[5mC]*eA) [compound 435772]” the “% inhibition of human Factor 7 mRNA” value was 42%. With “435773 (antisense e[5mC]*eA*dG*dG*dG*dA*dA*d[5mC]*dA*d[5mC]*d[5mC]*d[5mC]*eT*e[5mC]) [compound 435773]” the “% inhibition of human Factor 7 mRNA” value was 57%. For “435774 (antisense eG*eT*d[5mC]*d[5mC]*d[5mC]*dA*dG*dG*dG*dA*dA*dG*eG*e[5mC]) [compound 435774]”, the “% inhibition of human Factor 7 mRNA” value was 17%. With “435775 (antisense eT*e[5mC]*dT*dG*dG*dA*dA*dG*dG*dA*dA*d[5mC]*eA*eG) [compound 435775]” the “% inhibition of human Factor 7 mRNA” value was 25%. In the case of “435776 (antisense eG*eG*dG*dA*d[5mC]*dA*d[5mC]*dT*d[5mC]*dA*d[5mC]*dA*e[5mC]*eT) [compound 435776]”, the “% inhibition of human Factor 7 mRNA” value is reported as 51%. “435777 (antisense e[5mC]*eT*dG*dA*dG*dG*dA*dT*dG*d[5mC]*dA*dG*eG*e[5mC]) [compound 435777]” was tested, and the “% inhibition of human Factor 7 mRNA” value was 53%. “435778 (antisense eG*e[5mC]*dT*dA*d[5mC]*dT*dG*dG*dG*d[5mC]*d[5mC]*dA*e[5mC]*eG) [compound 435778]” was tested, and the “% inhibition of human Factor 7 mRNA” value was 49%. “435779 (antisense eT*eG*dA*dG*d[5mC]*dG*d[5mC]*dG*dG*dA*dA*dG*eA*eA) [compound 435779]” was tested, and the “% inhibition of human Factor 7 mRNA” value was 50%. “435780 (antisense eG*eG*dA*dG*dG*dG*dA*d[5mC]*dG*dA*d[5mC]*d[5mC]*eT*eT) [compound 435780]” was tested, and the “% inhibition of human Factor 7 mRNA” value was 28%. With “435781 (antisense eA*e[5mC]*d[5mC]*dA*d[5mC]*dG*d[5mC]*dG*dG*dT*dG*dG*eT*eG) [compound 435781]” the “% inhibition of human Factor 7 mRNA” value was 0%. With “435782 (antisense e[5mC]*eG*dT*dG*d[5mC]*dG*d[5mC]*dT*d[5mC]*dA*dG*d[5mC]*eT*e[5mC]) [compound 435782]” the “% inhibition of human Factor 7 mRNA” value was 36%. “435783 (antisense eA*eA*dA*d[5mC]*d[5mC]*dG*dG*d[5mC]*dA*dT*dG*d[5mC]*eG*e[5mC]) [compound 435783]” was tested, and the “% inhibition of human Factor 7 mRNA” value was 49%. With “435784 (antisense e[5mC]*e[5mC]*dT*dA*dA*dG*dT*dG*dT*dG*d[5mC]*dT*eT*eT) [compound 435784]” the “% inhibition of human Factor 7 mRNA” value was 17%. With “435785 (antisense eA*eG*d[5mC]*dT*dT*d[5mC]*dT*d[5mC]*dA*d[5mC]*d[5mC]*dA*e[5mC]*eG) [compound 435785]” the “% inhibition of human Factor 7 mRNA” value was 46%. With “435786 (antisense eA*eG*dG*dT*dG*dA*d[5mC]*d[5mC]*d[5mC]*dG*dT*dG*eA*eG) [compound 435786]” the “% inhibition of human Factor 7 mRNA” value was 68%. In the case of “435787 (antisense eG*eA*dG*dT*dG*dT*dG*dA*dG*dG*d[5mC]*dT*eT*e[5mC]) [compound 435787]”, the “% inhibition of human Factor 7 mRNA” value is reported as 34%. In the case of “435788 (antisense e[5mC]*e[5mC]*dT*dG*dT*dG*dA*dG*dT*dG*dT*dG*eA*eG) [compound 435788]”, the “% inhibition of human Factor 7 mRNA” value is reported as 20%. With “435789 (antisense e[5mC]*eA*dT*dG*dT*dT*dA*dG*d[5mC]*d[5mC]*dT*dT*eT*eG) [compound 435789]” the “% inhibition of human Factor 7 mRNA” value was 3%. For “435790 (antisense eA*eT*dG*dA*d[5mC]*d[5mC]*dA*dT*d[5mC]*d[5mC]*dT*d[5mC]*eA*eA) [compound 435790]”, the “% inhibition of human Factor 7 mRNA” value was 1%. “435791 (antisense eA*eT*dG*dA*dG*dA*dA*dA*dT*dG*d[5mC]*dT*eT*eT) [compound 435791]” was tested, and the “% inhibition of human Factor 7 mRNA” value was 0%. For “435792 (antisense eT*eG*d[5mC]*dT*dG*dA*dA*dG*dA*dA*dA*d[5mC]*eT*eG) [compound 435792]”, the “% inhibition of human Factor 7 mRNA” value was 9%.
